Entries after “also recorded” stand apart in the source; their conditions may differ. Read-outs that look alike come from different tables or passages of the source.
Assays:
5-HT2A receptor = 5-HT2A receptor (Homo sapiens, UniProt P28223); settings: cited from earlier work
neurogenesis = settings: Ly et al. 2018; cited from earlier work
human U87 cells = settings: Zhang et al. 2020; cited from earlier work
[1] = tested on: PC12 cells treated with conditioned media from 1321N1 human astrocytoma cells; test: Neurite outgrowth of PC12 cells treated with conditioned media from 1321N1 cells; type: cell-based, rat; settings: conditioned media from treated 1321N1 cells; FIG. 11, n=3
From the text: Although the assay aimed to explore potential synergistic effects of combining HE and psilocybin analogs, this was not clearly observed. […] 1321N1 human brain astrocytoma cells are known to excrete neurologically beneficial compounds when stimulated with neurotrophic compounds and fungal extracts including lion's mane (Mori et al., Biological and Pharmaceutical Bulletin, 9: 1727-1732 (2008)). While some fungi have well established mechanisms by which they benefit neurological health, little is known about the role of psilocybin analogs specifically. Generally following the protocol of Mori et al., 2008, 1321N1 human astrocytoma cells were treated with psilocybin analogs, and conditioned media was collected and applied to differentiated rat pheochromocytoma PC12 cells to determine the resulting impact on neurite outgrowth.

humans = settings: cited from earlier work
[2] = tested on: nerve growth factor (NGF) protein in human 1321N1 brain cells; test: ELISA of NGF protein in 1321N1 cells; type: cell-based; settings: compared to a vehicle control; n=3; p<0.05
From the text: Accordingly, preliminary research has started to reveal the mechanisms by which psilocybin analogs may confer neurotrophic benefits that facilitate neurite outgrowth.
(§1) See Ly et al., “Psychedelics Promote Structural and Functional Neural Plasticity,” Cell Rep.

[3] = tested on: anti-inflammatory cytokine IL-10 in human 1321N1 brain cells; test: ELISA of IL-10 in 1321N1 cells; type: cell-based
From the text: as §1

[4] = tested on: cortical neurons from rat embryo; test: Neurite outgrowth and length in cultured neurons (Neurofit), tubulin immunostaining, High-Content Screening; settings: versus vehicle control, at the concentrations tested

Sequence of 5-HT2A receptor (P28223 whole entry): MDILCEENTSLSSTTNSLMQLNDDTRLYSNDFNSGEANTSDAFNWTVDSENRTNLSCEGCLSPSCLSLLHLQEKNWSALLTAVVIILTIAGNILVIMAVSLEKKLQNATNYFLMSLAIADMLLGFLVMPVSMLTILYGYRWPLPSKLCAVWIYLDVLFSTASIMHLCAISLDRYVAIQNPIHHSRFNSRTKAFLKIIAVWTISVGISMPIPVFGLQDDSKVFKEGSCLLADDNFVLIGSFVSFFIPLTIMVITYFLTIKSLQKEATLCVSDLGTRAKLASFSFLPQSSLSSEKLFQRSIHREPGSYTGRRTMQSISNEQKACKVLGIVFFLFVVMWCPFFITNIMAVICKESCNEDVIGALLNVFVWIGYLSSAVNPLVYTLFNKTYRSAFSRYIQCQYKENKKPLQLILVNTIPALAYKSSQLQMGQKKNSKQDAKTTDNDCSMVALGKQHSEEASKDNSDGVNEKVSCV

For `COc1cc(C[C@@H](C)N)c(OC)cc1I` [(R)-2,5-dimethoxy-4-iodoamphetamine], the 5-HT2A receptor activation (5-HT2A receptor) is given as “activate the 5-HT2A receptor”.
For `COc1cc(CC(C)N)c(OC)cc1I` (centres unmarked) [DOI, 2,5-dimethoxy-4-iodoamphetamine], the neurogenesis (neurogenesis) is listed as “promoted neurogenesis”.
For `CCN(CC)C(=O)[C@@H]1C=C2c3cccc4[nH]cc(c34)C[C@H]2N(C)C1` [LSD, N,N-diethyl-D-lysergamide], the neurogenesis (neurogenesis) is listed as “promoted neurogenesis”.
In the case of `CC(=O)O[C@@H]1C[C@@H]2C3=C(C(C)C)CC[C@]3(C)CC[C@@]2(C)[C@@H](O[C@@H]2OC[C@@H](O)[C@H](O)[C@H]2O)C=C1C=O` [P], the inhibition of gliomas (human U87 cells) is listed as “inhibitors of gliomas”.
For `CNCCc1c[nH]c2cccc(OP(=O)(O)O)c12` [baeocystin, 4-phosphoryloxy-N-methyltryptamine], the “neurite outgrowth in PC12 cells” value [1] is listed as “induce neurite outgrowth”, the hallucinogenic effect (humans; 4 mg consumed, Gartz 1991) is listed as “gentle hallucinogenic experience” and the “potency and psychotropic effects” value (humans; Gartz 1997) is listed as “roughly akin to psilocybin”. For the same compound, the hallucinogenic effect (humans; oral consumption of 10 mg and 20 mg) was “did not produce any hallucinogenic effects”.
In the case of `CN(C)CCc1c[nH]c2ccccc12` [dimethyltryptamine, N,N-dimethyltryptamine], the neurogenesis (neurogenesis) is given as “promoted neurogenesis”.
In the case of `NCCc1c[nH]c2cccc(OP(=O)(O)O)c12` [norbaeocystin, 4-phosphoryloxy-tryptamine], the “neurite outgrowth in PC12 cells” value [1] is reported as “induce neurite outgrowth” and the “expression of NGF protein” value [2] is reported as “increased expression of NGF protein; also recorded: induces the expression; also recorded: induction of NGF protein”.
For `CNCCc1c[nH]c2cccc(O)c12` [norpsilocin, 4-hydroxy-N-methyl-tryptamine], the “neurite outgrowth in PC12 cells” value [1] was “induce neurite outgrowth”, the “expression of the anti-inflammatory cytokine IL-10” value [3] was “induces the expression” and the “neurite outgrowth, in words” value [4] was “did not perform better than vehicle control”.
